Experimental data from ChEMBL document CHEMBL2424640, “Dihydrothiazolopyridone derivatives as a novel family of positive allosteric modulators of the metabotropic glutamate 5 (mGlu5) receptor” (J Med Chem, 2013).

What was measured:
[1] = target: Metabotropic glutamate receptor 3 (Homo sapiens, UniProt Q14832)
Description: Positive allosteric modulation of human mGlu3 receptor expressed in HEK293 cells by fluorescent Ca2+ assay

[2] = target: Metabotropic glutamate receptor 6 (Rattus norvegicus, UniProt P35349)
Description: Positive allosteric modulation of rat mGlu6 receptor expressed in CHO cells by [35S]-GTPgammaS binding assay

[3] = target: Metabotropic glutamate receptor 1 (Homo sapiens, UniProt Q13255)
Description: Positive allosteric modulation of human mGlu1 receptor expressed in HEK293 cells by fluorescent Ca2+ assay

[4] = target: Metabotropic glutamate receptor 7 (Homo sapiens, UniProt Q14831)
Description: Positive allosteric modulation of human mGlu7 receptor expressed in HEK293 cells by fluorescent Ca2+ assay

[5] = target: Metabotropic glutamate receptor 2 (Homo sapiens, UniProt Q14416)
Description: Positive allosteric modulation of human mGlu2 receptor expressed in HEK293 cells by fluorescent Ca2+ assay

[6] = target: Metabotropic glutamate receptor 8 (Homo sapiens, UniProt O00222)
Description: Positive allosteric modulation of human mGlu8 receptor expressed in HEK293 cells by fluorescent Ca2+ assay

[7] = target: Metabotropic glutamate receptor 5 (Homo sapiens, UniProt P41594)
Description: Positive allosteric modulation of human mGluR5a transfected in HEK293 cells by calcium mobilization assay

[8] = target: Metabotropic glutamate receptor 4 (Homo sapiens, UniProt Q14833)
Description: Positive allosteric modulation of human mGlu4 receptor expressed in HEK293 cells by fluorescent Ca2+ assay

Chain of Metabotropic glutamate receptor 1 (Q13255 whole entry): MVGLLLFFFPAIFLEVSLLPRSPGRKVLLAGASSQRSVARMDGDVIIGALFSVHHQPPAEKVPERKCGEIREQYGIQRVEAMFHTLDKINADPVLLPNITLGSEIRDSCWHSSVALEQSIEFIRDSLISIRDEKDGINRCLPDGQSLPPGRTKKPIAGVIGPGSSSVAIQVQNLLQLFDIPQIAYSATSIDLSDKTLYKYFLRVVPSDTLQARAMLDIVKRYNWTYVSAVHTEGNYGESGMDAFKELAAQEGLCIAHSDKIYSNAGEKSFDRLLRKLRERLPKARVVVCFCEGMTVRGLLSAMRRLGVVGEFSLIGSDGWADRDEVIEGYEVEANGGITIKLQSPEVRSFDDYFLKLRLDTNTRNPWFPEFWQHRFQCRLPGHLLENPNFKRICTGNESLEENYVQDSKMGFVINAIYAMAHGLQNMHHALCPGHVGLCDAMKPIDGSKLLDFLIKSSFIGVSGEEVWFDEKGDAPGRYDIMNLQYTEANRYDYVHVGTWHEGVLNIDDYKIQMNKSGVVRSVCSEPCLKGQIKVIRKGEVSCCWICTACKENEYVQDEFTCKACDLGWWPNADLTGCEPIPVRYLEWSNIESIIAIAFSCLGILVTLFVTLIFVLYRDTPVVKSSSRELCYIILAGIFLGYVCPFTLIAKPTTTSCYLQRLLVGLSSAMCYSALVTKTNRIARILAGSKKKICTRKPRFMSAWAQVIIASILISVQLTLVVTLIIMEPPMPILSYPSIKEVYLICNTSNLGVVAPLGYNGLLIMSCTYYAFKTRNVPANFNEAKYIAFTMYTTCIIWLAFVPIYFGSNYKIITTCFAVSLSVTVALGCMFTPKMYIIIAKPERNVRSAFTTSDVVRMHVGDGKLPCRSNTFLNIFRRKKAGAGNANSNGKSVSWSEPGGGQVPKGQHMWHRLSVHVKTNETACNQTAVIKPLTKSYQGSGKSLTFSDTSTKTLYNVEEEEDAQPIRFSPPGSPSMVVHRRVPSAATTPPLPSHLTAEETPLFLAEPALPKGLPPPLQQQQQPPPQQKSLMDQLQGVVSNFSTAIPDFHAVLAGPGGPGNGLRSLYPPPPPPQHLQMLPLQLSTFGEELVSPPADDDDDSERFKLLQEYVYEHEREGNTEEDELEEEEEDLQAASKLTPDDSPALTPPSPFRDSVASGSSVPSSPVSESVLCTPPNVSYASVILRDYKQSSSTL
Chain of Metabotropic glutamate receptor 5 (P41594 whole entry): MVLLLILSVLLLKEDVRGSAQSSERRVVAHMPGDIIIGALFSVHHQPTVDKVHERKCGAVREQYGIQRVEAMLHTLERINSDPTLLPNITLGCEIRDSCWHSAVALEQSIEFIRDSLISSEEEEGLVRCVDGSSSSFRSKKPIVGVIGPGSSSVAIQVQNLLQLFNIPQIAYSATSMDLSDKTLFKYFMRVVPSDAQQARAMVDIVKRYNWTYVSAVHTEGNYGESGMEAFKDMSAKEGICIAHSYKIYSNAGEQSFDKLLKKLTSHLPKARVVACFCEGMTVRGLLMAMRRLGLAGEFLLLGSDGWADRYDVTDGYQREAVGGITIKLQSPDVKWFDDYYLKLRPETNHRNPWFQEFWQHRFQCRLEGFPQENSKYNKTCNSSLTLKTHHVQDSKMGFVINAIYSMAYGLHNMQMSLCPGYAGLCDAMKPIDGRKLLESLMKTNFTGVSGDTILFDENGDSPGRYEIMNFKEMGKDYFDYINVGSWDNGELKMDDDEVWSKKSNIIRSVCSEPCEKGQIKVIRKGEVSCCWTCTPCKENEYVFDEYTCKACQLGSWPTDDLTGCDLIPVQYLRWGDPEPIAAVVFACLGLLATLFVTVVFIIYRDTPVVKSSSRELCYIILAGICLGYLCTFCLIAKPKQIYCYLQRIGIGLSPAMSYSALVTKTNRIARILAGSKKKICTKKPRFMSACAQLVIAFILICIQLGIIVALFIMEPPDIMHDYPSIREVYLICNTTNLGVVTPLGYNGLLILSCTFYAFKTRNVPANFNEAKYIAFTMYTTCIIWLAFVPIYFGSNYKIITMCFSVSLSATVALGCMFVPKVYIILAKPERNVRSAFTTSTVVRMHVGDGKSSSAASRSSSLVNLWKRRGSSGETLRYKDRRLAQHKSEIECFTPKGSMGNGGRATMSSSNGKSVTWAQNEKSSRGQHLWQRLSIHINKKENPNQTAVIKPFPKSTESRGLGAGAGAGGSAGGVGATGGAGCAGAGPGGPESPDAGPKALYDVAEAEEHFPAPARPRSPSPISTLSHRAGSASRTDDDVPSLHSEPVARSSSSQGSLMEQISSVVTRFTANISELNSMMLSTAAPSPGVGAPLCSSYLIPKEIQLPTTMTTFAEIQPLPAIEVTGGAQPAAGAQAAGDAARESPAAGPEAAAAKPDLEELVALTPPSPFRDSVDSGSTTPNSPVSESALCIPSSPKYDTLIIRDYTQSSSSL
Chain of Metabotropic glutamate receptor 7 (Q14831 whole entry): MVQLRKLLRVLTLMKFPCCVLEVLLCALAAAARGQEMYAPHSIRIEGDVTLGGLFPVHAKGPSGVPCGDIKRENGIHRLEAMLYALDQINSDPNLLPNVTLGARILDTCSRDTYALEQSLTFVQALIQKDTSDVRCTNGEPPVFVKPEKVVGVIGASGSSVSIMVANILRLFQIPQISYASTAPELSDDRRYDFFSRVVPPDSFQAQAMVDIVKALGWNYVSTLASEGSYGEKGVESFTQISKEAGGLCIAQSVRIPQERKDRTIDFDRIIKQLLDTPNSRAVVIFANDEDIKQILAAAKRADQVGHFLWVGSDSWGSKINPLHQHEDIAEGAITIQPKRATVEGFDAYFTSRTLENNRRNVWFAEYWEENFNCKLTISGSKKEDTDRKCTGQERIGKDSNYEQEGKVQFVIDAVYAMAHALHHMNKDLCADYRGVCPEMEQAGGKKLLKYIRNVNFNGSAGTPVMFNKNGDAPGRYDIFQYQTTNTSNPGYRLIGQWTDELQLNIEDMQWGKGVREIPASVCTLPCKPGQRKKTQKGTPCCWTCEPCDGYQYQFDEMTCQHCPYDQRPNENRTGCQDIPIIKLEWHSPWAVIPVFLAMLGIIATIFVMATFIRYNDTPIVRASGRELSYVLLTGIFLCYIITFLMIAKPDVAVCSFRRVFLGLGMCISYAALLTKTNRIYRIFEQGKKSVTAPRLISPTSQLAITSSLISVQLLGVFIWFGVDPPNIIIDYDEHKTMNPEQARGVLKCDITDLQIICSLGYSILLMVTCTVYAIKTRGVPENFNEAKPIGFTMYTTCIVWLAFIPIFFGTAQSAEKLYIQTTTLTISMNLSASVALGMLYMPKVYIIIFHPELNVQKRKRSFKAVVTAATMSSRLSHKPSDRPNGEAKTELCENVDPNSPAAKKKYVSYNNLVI
Chain of Metabotropic glutamate receptor 6 (P35349 whole entry): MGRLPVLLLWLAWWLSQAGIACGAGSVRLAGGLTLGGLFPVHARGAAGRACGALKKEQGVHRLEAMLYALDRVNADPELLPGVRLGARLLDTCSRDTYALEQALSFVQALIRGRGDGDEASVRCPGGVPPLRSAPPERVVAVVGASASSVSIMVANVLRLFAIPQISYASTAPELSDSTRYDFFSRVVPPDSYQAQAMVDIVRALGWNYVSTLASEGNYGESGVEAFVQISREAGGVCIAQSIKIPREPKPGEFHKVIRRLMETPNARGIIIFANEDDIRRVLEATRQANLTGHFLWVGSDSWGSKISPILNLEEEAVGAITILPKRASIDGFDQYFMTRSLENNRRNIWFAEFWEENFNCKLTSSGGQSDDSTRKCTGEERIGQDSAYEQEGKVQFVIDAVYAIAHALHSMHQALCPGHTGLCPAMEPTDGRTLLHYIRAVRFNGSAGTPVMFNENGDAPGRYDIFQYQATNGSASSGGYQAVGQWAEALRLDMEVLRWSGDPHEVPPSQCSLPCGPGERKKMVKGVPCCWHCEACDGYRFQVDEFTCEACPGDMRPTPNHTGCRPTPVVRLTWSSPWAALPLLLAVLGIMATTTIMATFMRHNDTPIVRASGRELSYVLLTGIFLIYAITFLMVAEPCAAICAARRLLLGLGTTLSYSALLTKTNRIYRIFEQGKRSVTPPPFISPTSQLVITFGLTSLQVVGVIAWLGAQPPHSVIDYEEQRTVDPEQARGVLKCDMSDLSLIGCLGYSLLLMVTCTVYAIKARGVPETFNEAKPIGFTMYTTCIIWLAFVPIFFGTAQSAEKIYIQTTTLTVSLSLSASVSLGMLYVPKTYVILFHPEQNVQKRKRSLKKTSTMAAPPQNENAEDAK
Chain of Metabotropic glutamate receptor 3 (Q14832 whole entry): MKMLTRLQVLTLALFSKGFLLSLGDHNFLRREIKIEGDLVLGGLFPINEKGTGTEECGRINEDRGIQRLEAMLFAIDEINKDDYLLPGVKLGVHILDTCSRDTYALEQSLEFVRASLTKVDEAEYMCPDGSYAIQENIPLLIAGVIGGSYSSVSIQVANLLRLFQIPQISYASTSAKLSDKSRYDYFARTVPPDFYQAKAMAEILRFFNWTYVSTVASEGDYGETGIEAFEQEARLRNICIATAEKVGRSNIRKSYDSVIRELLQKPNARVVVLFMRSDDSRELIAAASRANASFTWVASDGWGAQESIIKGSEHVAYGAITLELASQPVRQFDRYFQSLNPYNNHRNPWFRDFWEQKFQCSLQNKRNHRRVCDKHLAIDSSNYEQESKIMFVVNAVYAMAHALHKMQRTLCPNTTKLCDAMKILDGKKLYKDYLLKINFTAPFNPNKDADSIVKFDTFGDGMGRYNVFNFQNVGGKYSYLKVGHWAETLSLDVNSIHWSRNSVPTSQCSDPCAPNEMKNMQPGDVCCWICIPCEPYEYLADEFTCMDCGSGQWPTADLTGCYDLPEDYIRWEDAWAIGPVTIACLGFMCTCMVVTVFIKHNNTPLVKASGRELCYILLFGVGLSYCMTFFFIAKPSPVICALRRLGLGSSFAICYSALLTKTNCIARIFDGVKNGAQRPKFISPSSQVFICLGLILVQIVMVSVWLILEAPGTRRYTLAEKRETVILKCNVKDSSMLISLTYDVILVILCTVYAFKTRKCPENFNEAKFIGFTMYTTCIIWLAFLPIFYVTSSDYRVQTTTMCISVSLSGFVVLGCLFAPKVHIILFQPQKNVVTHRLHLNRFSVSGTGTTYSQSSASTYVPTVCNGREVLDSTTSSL

Row | SMILES | EC50 [7] [nM] | also measured
1 | O=C1CCOc2cc(OCc3ccccc3)ccc21 |  | EC50 [1]: > 10000 nM; EC50 [2]: > 10000 nM; EC50 [3]: > 10000 nM; EC50 [4]: > 10000 nM; EC50 [5]: > 10000 nM; EC50 [6]: > 10000 nM
2 | O=C1CCOc2cc(COc3ccccc3)ccc21 |  | EC50 [1]: > 10000 nM; EC50 [2]: > 10000 nM; EC50 [3]: > 10000 nM; EC50 [4]: > 10000 nM; EC50 [5]: > 10000 nM; EC50 [6]: > 10000 nM
3 | O=C1NCCc2nc(C#Cc3ccccc3)sc21 | 123 | 
4 | CN1CCc2nc(C#Cc3ccccc3)sc2C1=O | 193 | 
5 | O=C1CCc2cc(O)ccc2O1 | > 10000 | 
6 | O=C1c2sc(COc3ccccc3)nc2CCN1CC1CC1 | 250 | 
7 | O=C1c2sc(COc3ccccc3)nc2CCN1CC1CCOCC1 | 851 | 
8 | O=C1c2sc(COc3ccccc3)nc2CCN1c1ccc(F)cc1 | 96 | 
9 | O=C1c2sc(COc3ccccc3)nc2CCN1c1ccc(F)cc1F | 66 | 
10 | O=C1c2sc(COc3ccccc3F)nc2CCN1c1ccc(F)cc1 | 553 | 
11 | O=C1c2sc(COc3cccc(F)c3)nc2CCN1c1ccc(F)cc1 | 77 | 
12 | O=C1c2sc(COc3ccc(F)cc3)nc2CCN1c1ccc(F)cc1 | 739 | 
13 | O=C1c2sc(COc3ccccc3)nc2CCN1c1ccccn1 | 1020 | 
14 | O=C1c2sc(COc3ccccc3)nc2CCN1c1cccnc1 | 1760 | 
15 | O=C1c2sc(COc3ccccc3)nc2CCN1c1ccc(F)cn1 | 621 | 
16 | O=C1c2sc(COc3ccccc3)nc2CCN1c1ncccc1F | 791 | 
17 | COCCN1CCc2nc(C#Cc3ccccc3)sc2C1=O | 119 | 
18 | CN1CCc2nc(OCc3ccccc3)sc2C1=O | 1750 | 
19 | O=C1c2sc(OCc3ccccc3)nc2CCN1c1ccc(F)cc1 | 1130 | 
20 | CC(C)N1CCc2nc(COc3ccccc3)sc2C1=O | 1210 | 
21 | COCCN1CCc2nc(COc3ccccc3)sc2C1=O | 2310 | 
22 | O=C1c2sc(COc3ccccc3)nc2CCN1C1CC1 | 1460 | 
23 | O=C1CCCc2nc(C#Cc3ccccc3)sc21 | 33 | EC50 [8]: > 10000 nM; EC50 [1]: > 10000 nM; EC50 [2]: > 10000 nM; EC50 [3]: > 10000 nM; EC50 [4]: > 10000 nM; EC50 [5]: > 10000 nM; EC50 [6]: > 10000 nM
24 | O=C(c1ccc(F)cc1)N1CCC[C@H](c2nc(-c3ccc(F)cc3)no2)C1 | 199 | 
25 | O=C(O)c1ccccc1 [BENZOIC ACID] | > 10000 | 
